Test results reported in patent publication US20160067221A1, “USE OF ERGOTHIONEINE FOR INDUCING ACTIVITY OF NRF2 IN CELL” (China Medical University, priority 2014, published 2016).

How the values were obtained:
Type in all cases: cell-based, human
HaCaT cells [1] = experiment: Cell viability by MTT assay, with or without UVA irradiation
Protocol: To examine a safety of the ergothioneine and a safe used dose of the ergothioneine to normal cells, HaCaT cells, human keratinocyte cell lines, are treated with different dose of the ergothioneine and then detected a cell viability.
The HaCaT cells are maintained at 37° C. in a humidified atmosphere of 5% CO2 in a culture medium (Dulbecco's modified Eagle medium/high glucose (DMEM) supplemented with 10% heat-inactivated fetal bovine serum (FBS)).
The cell viability is monitored using a method of […] (MTT assay). The HaCaT cells are seeded in a 12-well plate with 1×10^5 cells/well and then maintained at 37° C. in a humidified atmosphere of 5% CO2 untill the HaCaT cells are adhered in the next day. The HaCaT cells are subsequently incubated with or without the ergothioneine, and then maintained at 37° C. in a humidified atmosphere of 5% CO2 for 24 hours, wherein the concentration of the ergothioneine is 125 nM, 250 nM and 500 nM, respectively. Next, the HaCaT cells are washed with phosphate buffered saline (PBS) three times, and then irradiated with the UVA (15 J/cm^2). After the UVA irradiation, the PBS is replaced with the culture medium to culture the HaCaT cells for 4 hours. In next step, the culture medium is removed, the HaCaT cells are washed with PBS thrice, and then 450 μL of 1×MTT agent is added in each well to react at 37° C. in a humidified atmosphere of 5% CO2 for 2 hours. A culture supernatant is removed and re-suspended with 400 μL of isopropanol to dissolve MTT formazan. 200 μL of the supernatant is taken from the well and then added into a 96-well microplate to measure an absorbance at 570 nm.
The cell viability of the HaCaT cells is detected by the MTT assay.

HaCaT cells [2] = experiment: Comet assay (DNA damage); conditions: for Toxicity Scale 0 (comets in class 0) / Toxicity Scale 1 (comets in class 1) / Toxicity Scale 2 (comets in class 2) / Toxicity Scale 3 (comets in class 3) / Toxicity Scale 4 (comets in class 4): per 100 comets
Source text: The exposure of the UVA can cause a DNA damage. To examine the effect of the ergothioneine on the UVA-induced DNA damage, we use a comet assay to analyze the DNA damage. The comet assay involves an encapsulation of the cells in a low-melting-point agarose suspension, the cells lysis in alkaline (pH>13) conditions, a short-term electrophoresis of the suspended lysed cells, and a stained DNA of an electrophoretic stripe using the fluorescent dye. The term “comet” refers to a pattern of a DNA migration through the electrophoresis gel, wherein the DNA migration is caused by a DNA cleavage fragment of the damaged cell released from its nucleus, and the DNA cleavage fragment moves faster than the nucleus of a non-damaged cell in an electric field and results in structure resembling the comet. […] Then, the HaCaT cells are performed the comet assay and stained by red fluorescent dye. The pattern of the nucleus of the damaged cell resembles the comet in the comet assay, which is caused by the DNA cleavage fragment of the damaged cell. In contrast, the pattern of the nucleus of the normal cell, which has non-DNA cleavage fragment, is spherical in the comet assay. […] In FIG. 4 and Table 1, the UVA irradiation (15 J/cm^2) for 4 hours triggers the DNA breakage of the nucleus shown as the tail. The overall score of the group treated with the UVA irradiation alone is 356.3±2.1. […] Therefore, the ergothioneine can inhibit the DNA damage and has a protective property.

[3] = test system: Nrf2 knockdown HaCaT cells; experiment: TUNEL apoptosis in siRNA-transfected HaCaT cells
Protocol: The siRNA transfection includes steps as follows. The HaCaT cells are seeded in a 6-well plate with 4×10^5 cells/well and then maintained at 37° C. in the humidified atmosphere of 5% CO2 untill the time of the transfection. The day after reaching 40-60% confluence, the culture medium is replaced with 1 mL of FBS-free and antibiotic-free culture medium in each well, and the HaCaT cells are transfected with a siNrf2 or a control siRNA by using Lipofectamine 2000 (Invitrogen, U.S.A.) for 4-6 hours. After the incubation for 4-6 hours, the HaCaT cells are washed with the culture medium supplemented with 10% FBS 2-3 times, and then cultured in the culture medium supplemented with 10% FBS for 12-16 hours.

Q: Which “cell death at respective dose of UVA irradiation” value (HaCaT cells [1]; 500 nM for 2 hours, UVA 5-15 J/cm^2) does the source give for `C[N+](C)(C)[C@@H](Cc1c[nH]c(=S)[nH]1)C(=O)[O-]` [ergothioneine, 2-mercapto histidine trimethylbetain] here?
A: significantly attenuated

Q: What about the “cytotoxic effects (cell viability)” value (HaCaT cells [1]; HaCaT cells, 125-500 nM, 24 hours) of the same molecule?
A: does not cause any cytotoxic effects

Q: What about the cell viability (HaCaT cells [1]; pretreated with 500 nM, then UVA 15 J/cm^2, cultured 4 hours) of the same molecule?
A: 75.5%

Q: And the UVA-induced cell death (HaCaT cells [1]; pretreatment 125-500 nM, UVA 15 J/cm^2)?
A: attenuates a UVA-induced cell death in a dose-dependent manner

Q: What about the “Total Damage (overall comet score, 0-400)” value (“Total Damage” below) (HaCaT cells [2]; 250 nM + 15 J/cm^2 UVA) of the same molecule?
A: 144 ± 10

Q: What about the “Toxicity Scale 0 (comets in class 0)” value (HaCaT cells [2]; 250 nM + 15 J/cm^2 UVA) of the same molecule?
A: 20 ± 1

Q: What about the “Toxicity Scale 1 (comets in class 1)” value (HaCaT cells [2]; 250 nM + 15 J/cm^2 UVA) of the same molecule?
A: 27 ± 6

Q: And the “Toxicity Scale 2 (comets in class 2)” value (HaCaT cells [2]; 250 nM + 15 J/cm^2 UVA)?
A: 52 ± 9

Q: And the “Toxicity Scale 3 (comets in class 3)” value (HaCaT cells [2]; 250 nM + 15 J/cm^2 UVA)?
A: 0 ± 0

Q: What about the “Toxicity Scale 4 (comets in class 4)” value (HaCaT cells [2]; 250 nM + 15 J/cm^2 UVA) of the same molecule?
A: 0 ± 0

Q: What about the “Total Damage” value (HaCaT cells [2]; 250 nM, no UVA) of the same molecule?
A: 14 ± 4

Q: What about the “Toxicity Scale 0 (comets in class 0)” value (HaCaT cells [2]; 250 nM, no UVA) of the same molecule?
A: 88 ± 4

Q: What about the “Toxicity Scale 1 (comets in class 1)” value (HaCaT cells [2]; 250 nM, no UVA) of the same molecule?
A: 10 ± 4

Q: What about the “Toxicity Scale 2 (comets in class 2)” value (HaCaT cells [2]; 250 nM, no UVA) of the same molecule?
A: 2 ± 2

Q: And the “Toxicity Scale 3 (comets in class 3)” value (HaCaT cells [2]; 250 nM, no UVA)?
A: 0 ± 0

Q: And the “Toxicity Scale 4 (comets in class 4)” value (HaCaT cells [2]; 250 nM, no UVA)?
A: 0 ± 0

Q: And the “Total Damage” value (HaCaT cells [2]; 500 nM + 15 J/cm^2 UVA)?
A: 59.0±7.0

Q: What about the “Total Damage” value (HaCaT cells [2]; 500 nM + 15 J/cm^2 UVA, listed as EGT) of the same molecule?
A: 59 ± 7

Q: And the “Toxicity Scale 0 (comets in class 0)” value (HaCaT cells [2]; 500 nM + 15 J/cm^2 UVA)?
A: 49 ± 7

Q: And the “Toxicity Scale 1 (comets in class 1)” value (HaCaT cells [2]; 500 nM + 15 J/cm^2 UVA)?
A: 43 ± 8

Q: And the “Toxicity Scale 2 (comets in class 2)” value (HaCaT cells [2]; 500 nM + 15 J/cm^2 UVA)?
A: 8 ± 1

Q: What about the “Toxicity Scale 3 (comets in class 3)” value (HaCaT cells [2]; 500 nM + 15 J/cm^2 UVA) of the same molecule?
A: 0 ± 0

Q: And the “Toxicity Scale 4 (comets in class 4)” value (HaCaT cells [2]; 500 nM + 15 J/cm^2 UVA)?
A: 0 ± 0

Q: What about the “Total Damage” value (HaCaT cells [2]; 500 nM, no UVA) of the same molecule?
A: 22 ± 6

Q: And the “Toxicity Scale 0 (comets in class 0)” value (HaCaT cells [2]; 500 nM, no UVA)?
A: 81 ± 6

Q: And the “Toxicity Scale 1 (comets in class 1)” value (HaCaT cells [2]; 500 nM, no UVA)?
A: 16 ± 7

Q: And the “Toxicity Scale 2 (comets in class 2)” value (HaCaT cells [2]; 500 nM, no UVA)?
A: 3 ± 2

Q: And the “Toxicity Scale 3 (comets in class 3)” value (HaCaT cells [2]; 500 nM, no UVA)?
A: 0 ± 0

Q: And the “Toxicity Scale 4 (comets in class 4)” value (HaCaT cells [2]; 500 nM, no UVA)?
A: 0 ± 0

Q: What about the “UVA-induced apoptosis (TUNEL)” value ([3]; Nrf2 siRNA, ergothioneine pretreatment, UVA) of the same molecule?
A: unable to improve the UVA-induced apoptosis

Q: What about the “apoptosis (TUNEL)” value ([3]; control siRNA, ergothioneine prior to UVA, vs UVA alone) of the same molecule?
A: significantly decreased
